From ChEMBL document CHEMBL1150752, “Inhibition of cow's milk xanthine oxidase by flavonoids” (J Nat Prod, 1988)

Target: Xanthine dehydrogenase/oxidase (Bos taurus, UniProt P80457)
Assay: Inhibition of cow milk xanthine oxidase at 50 ug/mL
Conditions: cattle

Sequence of Xanthine dehydrogenase/oxidase (P80457 whole entry): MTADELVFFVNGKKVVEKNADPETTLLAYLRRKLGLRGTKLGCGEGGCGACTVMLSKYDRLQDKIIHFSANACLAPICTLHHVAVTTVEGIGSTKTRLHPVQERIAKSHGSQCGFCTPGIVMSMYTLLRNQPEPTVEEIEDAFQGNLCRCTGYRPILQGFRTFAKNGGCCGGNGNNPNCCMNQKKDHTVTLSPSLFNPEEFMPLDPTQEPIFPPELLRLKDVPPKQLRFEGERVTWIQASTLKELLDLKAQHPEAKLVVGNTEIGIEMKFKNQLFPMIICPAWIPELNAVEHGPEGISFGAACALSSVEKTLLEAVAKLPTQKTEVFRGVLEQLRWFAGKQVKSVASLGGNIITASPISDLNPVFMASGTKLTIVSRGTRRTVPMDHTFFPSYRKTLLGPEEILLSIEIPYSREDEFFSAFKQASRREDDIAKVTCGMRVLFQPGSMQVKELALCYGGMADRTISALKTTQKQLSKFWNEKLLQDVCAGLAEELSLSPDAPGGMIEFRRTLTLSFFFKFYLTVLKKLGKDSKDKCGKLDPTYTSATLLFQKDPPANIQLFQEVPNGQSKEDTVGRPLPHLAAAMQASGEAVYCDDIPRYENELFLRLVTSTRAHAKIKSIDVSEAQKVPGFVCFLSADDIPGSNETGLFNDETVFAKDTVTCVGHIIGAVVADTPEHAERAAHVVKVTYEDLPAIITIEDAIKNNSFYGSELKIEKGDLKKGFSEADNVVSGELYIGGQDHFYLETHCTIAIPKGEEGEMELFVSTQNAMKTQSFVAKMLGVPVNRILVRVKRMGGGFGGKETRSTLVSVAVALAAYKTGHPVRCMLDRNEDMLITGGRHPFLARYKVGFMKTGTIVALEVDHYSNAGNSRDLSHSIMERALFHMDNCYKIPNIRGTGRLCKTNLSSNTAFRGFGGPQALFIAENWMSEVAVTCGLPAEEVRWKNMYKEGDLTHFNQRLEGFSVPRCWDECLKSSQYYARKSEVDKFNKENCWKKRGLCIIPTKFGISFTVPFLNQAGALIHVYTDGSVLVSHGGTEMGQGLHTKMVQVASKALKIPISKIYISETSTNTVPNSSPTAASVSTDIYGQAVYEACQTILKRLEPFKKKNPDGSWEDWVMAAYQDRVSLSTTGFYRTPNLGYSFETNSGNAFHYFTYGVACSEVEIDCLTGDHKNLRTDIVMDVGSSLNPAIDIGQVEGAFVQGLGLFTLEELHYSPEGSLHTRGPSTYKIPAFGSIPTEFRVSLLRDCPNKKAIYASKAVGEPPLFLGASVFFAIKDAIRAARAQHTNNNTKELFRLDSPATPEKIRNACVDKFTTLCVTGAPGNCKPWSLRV

Structure (SMILES) | inhibition at 50 µg/mL
CC(=O)Oc1cc(OC(C)=O)c2c(=O)c(OC(C)=O)c(-c3ccc(OC(C)=O)c(OC(C)=O)c3)oc2c1 | 0%
COc1ccc(-c2cc(=O)c3c(O)cc(O[C@@H]4O[C@H](CO[C@@H]5OC[C@@H](O)[C@@H](O)[C@@H]5O)[C@@H](O)[C@H](O)[C@H]4O)cc3o2)cc1O | 30.5%
O=C(O[C@H]1[C@H](Oc2c(-c3ccc(O)c(O)c3)oc3cc(O)cc(O)c3c2=O)O[C@H](CO)[C@@H](O)[C@@H]1O)c1cc(O)c(O)c(O)c1 | 21%
O=c1c(O)c(-c2ccc(O)cc2)oc2cc(O[C@@H]3O[C@H](CO)[C@@H](O)[C@H](O)[C@H]3O)cc(O)c12 | 0%
O=c1cc(-c2ccc(O)c(O)c2)oc2cc(O[C@@H]3O[C@H](CO)[C@@H](O)[C@H](O)[C@H]3O)c([C@@H]3O[C@H](CO)[C@@H](O)[C@H](O)[C@H]3O)c(O)c12 | 0%
CC(=O)Oc1cc(OC(C)=O)c2c(=O)c(OC(C)=O)c(-c3cc(OC(C)=O)c(OC(C)=O)c(OC(C)=O)c3)oc2c1 | 13.6%
CC(=O)Oc1ccc(-c2cc(=O)c3c(OC(C)=O)c(OC(C)=O)c(OC(C)=O)cc3o2)cc1 | 0%
COc1cc2oc(-c3ccc(O[C@@H]4O[C@H](CO)[C@@H](O)[C@H](O)[C@H]4O)c(O)c3)cc(=O)c2c(O)c1OC | 0%
COc1cc(-c2cc(=O)c3c(O)c(OC)c(OC)cc3o2)ccc1O[C@@H]1O[C@H](CO)[C@@H](O)[C@H](O)[C@H]1O | 0%
COc1ccc(-c2cc(=O)c3c(O)cc(O[C@@H]4O[C@H](CO)[C@@H](O)[C@H](O)[C@H]4O)cc3o2)cc1O | 28.9%
COc1cc(-c2cc(=O)c3c(O)cc(O[C@H]4O[C@@H](C(=O)O)[C@H](O)[C@@H](O)[C@@H]4O)cc3o2)ccc1O | 0.3%
CC(=O)Oc1cc(OC(C)=O)c2c(=O)cc(-c3ccc(OC(C)=O)c(OC(C)=O)c3)oc2c1 | 47.7%
O=C1c2c(O)cc(O)cc2O[C@H](c2ccc(O)c(O)c2)[C@H]1O [(+)-TAXIFOLIN] | 17.8%
COc1ccc(-c2cc(=O)c3c(O)cc(O[C@@H]4O[C@H](CO[C@@H]5O[C@@H](C)[C@H](O)[C@@H](O)[C@H]5O)[C@@H](O)[C@H](O)[C@H]4O)cc3o2)cc1 [ACACIIN] | 15.1%
O=c1cc(-c2ccc(O)cc2)oc2cc(O[C@@H]3O[C@H](CO)[C@@H](O)[C@H](O)[C@H]3O)cc(O)c12 [APIGETRIN] | 13.9%
C[C@@H]1O[C@@H](O[C@H]2C(=O)c3c(O)cc(O)cc3O[C@@H]2c2ccc(O)c(O)c2)[C@H](O)[C@H](O)[C@H]1O [ASTILBIN] | 0%
O=c1c(O[C@@H]2O[C@@H](CO)[C@H](O)[C@H]2O)c(-c2ccc(O)c(O)c2)oc2cc(O)cc(O)c12 [AVICULARIN] | 30.8%
COc1cc2oc(-c3ccccc3)cc(=O)c2c(OC)c1OC [BAICALEIN TRIMETHYL ETHER] | 22%
COc1cc(-c2cc(=O)c3c(O)cc(O)cc3o2)ccc1O [CHRYSOERIOL] | 61.5%
COc1cc(-c2cc(=O)c3c(O)c(OC)c(OC)cc3o2)ccc1O [CIRSILENEOL] | 1%
COc1cc2oc(-c3ccc(O)c(O)c3)cc(=O)c2c(O)c1OC [CIRSILIOL] | 0.5%
COc1cc2oc(-c3ccc(O[C@@H]4O[C@H](CO)[C@@H](O)[C@H](O)[C@H]4O)cc3)cc(=O)c2c(O)c1OC [CIRSIMARIN] | 12.2%

Structure (SMILES) | inhibition at 50 µg/mL
COc1cc2oc(-c3ccc(O)cc3)cc(=O)c2c(O)c1OC [CIRSIMARITIN] | 0%
O=c1c(-c2ccc(O)cc2)coc2cc(O)ccc12 [DAIDZEIN] | 0%
O=c1c(-c2ccc(O)cc2)coc2cc(O[C@@H]3O[C@H](CO)[C@@H](O)[C@H](O)[C@H]3O)ccc12 [DAIDZIN] | 0%
COc1ccc(-c2cc(=O)c3c(O)cc(O[C@@H]4O[C@H](CO[C@@H]5O[C@@H](C)[C@H](O)[C@@H](O)[C@H]5O)[C@@H](O)[C@H](O)[C@H]4O)cc3o2)cc1O [DIOSMIN] | 0%
COc1ccc(-c2cc(=O)c3c(O)c([C@@H]4O[C@H](CO)[C@@H](O)[C@H](O)[C@H]4O)c(OC)cc3o2)cc1 [EMBIGENIN] | 33.5%
COc1ccc(-c2cc(=O)c3c(O)c([C@H]4O[C@H](CO)[C@@H](O)[C@H](O)[C@H]4O[C@H]4O[C@H](C)[C@@H](O)[C@H](O)[C@@H]4O)c(OC)cc3o2)cc1 [EMBININ] | 22.8%
O=C1C[C@@H](c2ccc(O)c(O)c2)Oc2cc(O)cc(O)c21 [ERIODICTYOL] | 47.8%
COc1c(O)cc2oc(-c3ccc(O)c(O)c3)cc(=O)c2c1O [EUPAFOLIN] | 49%
O=c1cc(-c2ccccc2)oc2ccccc12 [FLAVONE] | 15.4%
COc1ccc(-c2coc3cc(O)ccc3c2=O)cc1 [FORMONONETIN] | 17.6%
O=C1c2ccc(O)cc2O[C@H](c2ccc(O)c(O)c2)[C@H]1O [FUSTIN] | 27.2%
O=c1c(-c2ccc(O)cc2)coc2cc(O)cc(O)c12 [GENISTEIN] | 0%
O=c1c(-c2ccc(O)cc2)coc2cc(O[C@@H]3O[C@H](CO)[C@@H](O)[C@H](O)[C@H]3O)cc(O)c12 [GENISTIN] | 0.8%
O=c1c(O[C@@H]2O[C@H](CO)[C@H](O)[C@H](O)[C@H]2O)c(-c2ccc(O)c(O)c2)oc2cc(O)cc(O)c12 [HYPEROSIDE] | 43%
COc1cc(-c2coc3cc(O[C@@H]4O[C@H](CO)[C@@H](O)[C@H](O)[C@H]4O)c(OC)c(O)c3c2=O)cc(O)c1OC [IRIDIN] | 0%
COc1cc(-c2coc3cc(O)c(OC)c(O)c3c2=O)cc(O)c1OC [IRIGENIN] | 0%
COc1cc(-c2coc3cc4c(c(OC)c3c2=O)OCO4)cc(OC)c1OC [IRISFLORENTIN] | 0%
COc1c2c(cc3occ(-c4ccc(O)cc4)c(=O)c13)OCO2 [IRISOLONE] | 0%
COc1ccc(-c2coc3cc(O)c(OC)c(O)c3c2=O)cc1O [IRISTECTORIGENIN A] | 0%
O=c1cc(-c2ccc(O)c(O)c2)oc2cc(O)c([C@@H]3O[C@H](CO)[C@@H](O)[C@H](O)[C@H]3O)c(O)c12 [ISOORIENTIN] | 25.2%
COc1cc(-c2oc3cc(O)cc(O)c3c(=O)c2O)ccc1O [ISORHAMNETIN] | 49%
O=c1c(O[C@@H]2O[C@@H](CO)[C@H](O)[C@H]2O)c(-c2ccc(O)cc2)oc2cc(O)cc(O)c12 [JUGLANIN] | 0%

Structure (SMILES) | inhibition at 50 µg/mL
COc1cc2oc(-c3ccc(O)cc3)c(O)c(=O)c2c(O)c1[C@@H]1O[C@H](CO)[C@@H](O)[C@H](O)[C@H]1O [KEYAKININ] | 0%
O=C1C[C@@H](c2ccc(O[C@@H]3O[C@H](CO)[C@@H](O)[C@H](O)[C@H]3O)cc2)Oc2cc(O)ccc21 [LIQUIRITIN] | 18%
O=C1C[C@@H](c2ccc(O)cc2)Oc2cc(O)ccc21 [LIQUIRTIGENIN] | 100%
C[C@@H]1O[C@@H](O[C@H]2[C@H](Oc3cc(O)c4c(=O)cc(-c5ccc(O)c(O)c5)oc4c3)O[C@H](CO)[C@@H](O)[C@@H]2O)[C@H](O)[C@H](O)[C@H]1O [LONICERIN] | 20.1%
COc1cc(-c2oc3cc(O)cc(O)c3c(=O)c2O[C@@H]2O[C@H](CO[C@@H]3O[C@@H](C)[C@H](O)[C@@H](O)[C@H]3O)[C@@H](O)[C@H](O)[C@H]2O)ccc1O [NARCISSIN] | 22.2%
O=c1cc(-c2ccc(O)c(O)c2)oc2c([C@@H]3O[C@H](CO)[C@@H](O)[C@H](O)[C@H]3O)c(O)cc(O)c12 [ORIENTIN] | 15.3%
COc1ccc(-c2cc(=O)c3c(O)c(OC)c(O)cc3o2)cc1 [PECTOLINARIGENIN] | 32.1%
COc1ccc(-c2cc(=O)c3c(O)c(OC)c(O[C@@H]4O[C@H](CO[C@@H]5O[C@@H](C)[C@H](O)[C@@H](O)[C@H]5O)[C@@H](O)[C@H](O)[C@H]4O)cc3o2)cc1 [PECTOLINARIN] | 11.5%
CC(C)=CCc1c(O[C@@H]2O[C@H](CO)[C@@H](O)[C@H](O)[C@H]2O)cc(O)c2c1O[C@H](c1ccc(O)cc1)[C@@H](O)C2=O [PHELLAMURIN] | 0%
COc1ccc([C@@H]2CC(=O)c3c(O)cc(O[C@@H]4O[C@H](CO)[C@@H](O)[C@H](O)[C@H]4O[C@@H]4O[C@@H](C)[C@H](O)[C@@H](O)[C@H]4O)cc3O2)cc1 [PONCIRIN] | 0%
O=C1C[C@@H](c2ccc(O)cc2)Oc2cc(O[C@@H]3O[C@H](CO)[C@@H](O)[C@H](O)[C@H]3O)cc(O)c21 [PRUNIN] | 4.2%
O=C(O)[C@H]1O[C@@H](Oc2c(-c3ccc(O)c(O)c3)oc3cc(O)cc(O)c3c2=O)[C@H](O)[C@@H](O)[C@@H]1O [QUERCETIN GLUCURONIDE] | 36.5%
O=c1c(O)c(-c2ccc(O)c(O)c2)oc2cc(O[C@@H]3O[C@H](CO)[C@@H](O)[C@H](O)[C@H]3O)cc(O)c12 [QUERCIMERITRIN] | 0%
O=c1c(O[C@@H]2OC[C@@H](O)[C@H](O)[C@H]2O)c(-c2ccc(O)c(O)c2)oc2cc(O)cc(O)c12 [REYNOUTRIN] | 33.1%
C[C@@H]1O[C@@H](O[C@H]2[C@H](Oc3cc(O)c4c(=O)cc(-c5ccc(O)cc5)oc4c3)O[C@H](CO)[C@@H](O)[C@@H]2O)[C@H](O)[C@H](O)[C@H]1O [RHOIFOLIN] | 12.9%
O=c1c(O)c(-c2cc(O)c(O)c(O)c2)oc2cc(O)ccc12 [ROBINETIN] | 82.9%
COc1cc(O)c2c(c1)O[C@H](c1ccc(O)cc1)CC2=O [SAKURANETIN] | 0%
COc1ccc(-c2cc(=O)c3c(O)cc(O)c(-c4cc(-c5cc(=O)c6c(O)cc(OC)cc6o5)ccc4OC)c3o2)cc1 [SCIADOPITISIN] | 0%
O=C(O)[C@H]1O[C@@H](Oc2cc3oc(-c4ccc(O)cc4)cc(=O)c3c(O)c2O)[C@H](O)[C@@H](O)[C@@H]1O [SCUTELLARIN] | 16.6%
O=c1c(-c2ccc(O[C@@H]3O[C@H](CO)[C@@H](O)[C@H](O)[C@H]3O)cc2)coc2cc(O)cc(O)c12 [SOPHORICOSIDE] | 15.3%
COc1cc2oc(-c3ccc(O)cc3)cc(=O)c2c(O)c1[C@@H]1O[C@H](CO)[C@@H](O)[C@H](O)[C@H]1O [SWERTISIN] | 24.9%
